Data: patent publication US10040781B2, “Tank-binding kinase inhibitor compounds” (Gilead Sciences, Inc., priority 2014, dated 2018)

How the values were obtained:
IKKε = IKKε (Homo sapiens (Human), UniProt Q14164); assay: IKKε TR-FRET enzymatic assay; assay type: biochemical; conditions: read-out: IKKe IC50
hJAK2 = hJAK2 (Homo sapiens (Human), UniProt O60674); assay: hJAK2 LANCE TR-FRET enzymatic assay; assay type: biochemical; conditions: read-out: JAK2 IC50
TBK1 = TBK1 (Homo sapiens (Human), UniProt Q9UHD2); assay: TBK1 TR-FRET enzymatic assay;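 note: phosphorylation of a biotinylated Ser/Thr peptide by purified full-length recombinant TBK1, read by TR-FRET after 240 min at 25 °C, IC50 is the geometric mean of at least four runs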
Chain of TBK1 (Q9UHD2 whole entry): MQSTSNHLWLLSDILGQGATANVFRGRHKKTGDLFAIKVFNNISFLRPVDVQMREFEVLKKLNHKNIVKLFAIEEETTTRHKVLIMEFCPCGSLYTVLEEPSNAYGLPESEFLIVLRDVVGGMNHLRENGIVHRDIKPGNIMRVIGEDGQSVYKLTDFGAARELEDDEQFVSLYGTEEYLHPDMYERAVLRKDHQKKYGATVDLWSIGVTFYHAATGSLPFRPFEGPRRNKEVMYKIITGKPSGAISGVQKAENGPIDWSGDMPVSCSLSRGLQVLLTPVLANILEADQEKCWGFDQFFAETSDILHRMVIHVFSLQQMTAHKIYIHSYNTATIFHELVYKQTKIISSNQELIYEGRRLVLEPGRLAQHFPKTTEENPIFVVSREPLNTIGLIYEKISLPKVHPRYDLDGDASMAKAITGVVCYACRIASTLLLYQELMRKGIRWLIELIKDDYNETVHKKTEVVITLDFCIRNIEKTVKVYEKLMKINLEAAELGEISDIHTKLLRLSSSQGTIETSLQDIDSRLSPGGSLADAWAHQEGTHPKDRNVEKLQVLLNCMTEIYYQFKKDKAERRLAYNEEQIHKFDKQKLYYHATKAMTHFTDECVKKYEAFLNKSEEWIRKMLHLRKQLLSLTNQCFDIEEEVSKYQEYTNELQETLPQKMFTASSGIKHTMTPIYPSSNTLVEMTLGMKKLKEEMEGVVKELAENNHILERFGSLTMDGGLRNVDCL

Chain of IKKε (Q14164 whole entry): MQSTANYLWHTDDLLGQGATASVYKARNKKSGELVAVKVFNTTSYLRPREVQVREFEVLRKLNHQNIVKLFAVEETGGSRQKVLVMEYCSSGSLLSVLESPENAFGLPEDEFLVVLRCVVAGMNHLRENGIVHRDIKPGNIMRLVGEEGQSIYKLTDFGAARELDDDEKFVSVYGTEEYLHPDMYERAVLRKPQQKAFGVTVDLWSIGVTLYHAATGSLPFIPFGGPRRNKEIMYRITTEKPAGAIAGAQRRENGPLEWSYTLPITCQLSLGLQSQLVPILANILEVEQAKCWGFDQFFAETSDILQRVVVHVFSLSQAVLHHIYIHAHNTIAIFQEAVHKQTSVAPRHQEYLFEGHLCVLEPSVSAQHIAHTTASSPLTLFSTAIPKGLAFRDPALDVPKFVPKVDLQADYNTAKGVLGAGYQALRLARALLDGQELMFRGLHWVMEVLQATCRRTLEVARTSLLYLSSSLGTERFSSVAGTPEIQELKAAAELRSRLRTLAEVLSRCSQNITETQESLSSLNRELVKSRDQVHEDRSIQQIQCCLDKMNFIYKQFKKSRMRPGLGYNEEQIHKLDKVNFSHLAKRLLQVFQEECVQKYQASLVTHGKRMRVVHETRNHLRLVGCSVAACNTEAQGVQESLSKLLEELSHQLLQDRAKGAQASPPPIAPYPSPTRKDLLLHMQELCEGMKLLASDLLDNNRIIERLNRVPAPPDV
Chain of hJAK2 (O60674 whole entry): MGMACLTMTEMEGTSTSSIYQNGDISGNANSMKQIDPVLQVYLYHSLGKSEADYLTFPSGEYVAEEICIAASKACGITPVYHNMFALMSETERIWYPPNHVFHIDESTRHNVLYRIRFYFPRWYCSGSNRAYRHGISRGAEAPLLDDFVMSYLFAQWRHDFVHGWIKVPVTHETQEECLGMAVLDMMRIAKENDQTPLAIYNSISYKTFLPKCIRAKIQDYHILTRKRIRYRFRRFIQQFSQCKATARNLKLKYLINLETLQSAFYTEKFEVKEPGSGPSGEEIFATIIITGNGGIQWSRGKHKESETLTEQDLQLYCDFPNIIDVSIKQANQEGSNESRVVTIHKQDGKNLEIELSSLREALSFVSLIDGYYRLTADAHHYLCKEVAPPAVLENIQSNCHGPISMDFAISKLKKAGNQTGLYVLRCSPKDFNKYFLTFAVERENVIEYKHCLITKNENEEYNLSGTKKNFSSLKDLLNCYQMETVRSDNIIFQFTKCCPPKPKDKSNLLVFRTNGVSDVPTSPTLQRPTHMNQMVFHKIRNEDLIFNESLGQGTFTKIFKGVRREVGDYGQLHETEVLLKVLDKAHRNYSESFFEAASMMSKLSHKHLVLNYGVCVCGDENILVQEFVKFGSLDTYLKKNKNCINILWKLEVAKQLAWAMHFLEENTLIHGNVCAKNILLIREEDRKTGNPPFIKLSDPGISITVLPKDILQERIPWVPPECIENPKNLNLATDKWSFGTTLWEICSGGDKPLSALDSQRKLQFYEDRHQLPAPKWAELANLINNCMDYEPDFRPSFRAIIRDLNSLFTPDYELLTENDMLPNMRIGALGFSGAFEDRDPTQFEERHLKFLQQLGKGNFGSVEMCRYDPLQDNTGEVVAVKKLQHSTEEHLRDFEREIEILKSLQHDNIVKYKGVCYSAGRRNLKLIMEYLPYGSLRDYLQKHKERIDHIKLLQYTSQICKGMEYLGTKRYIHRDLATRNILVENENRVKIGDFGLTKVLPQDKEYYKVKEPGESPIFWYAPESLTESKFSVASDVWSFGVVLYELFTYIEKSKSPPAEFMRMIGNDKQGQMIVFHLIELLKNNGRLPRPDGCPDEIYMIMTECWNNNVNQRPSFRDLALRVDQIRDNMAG

Structure (SMILES)	IC50 (IKKε) [nM]	IC50 (hJAK2) [nM]	IC50 (TBK1) [nM]
N#Cc1cc(-c2ncnc(Nc3ccc(N4CCN(C5COC5)CC4)cc3)n2)ccc1OCCN1CCN(C(N)=O)CC1 [Example 606, 4-(2-(2-cyano-4-(4-((4-(4-(oxetan-3-yl)piperazin-1-yl)phenyl)amino)-1,3,5-triazin-2-yl)phenoxy)ethyl)piperazine-1-carboxamide]	494	≥ 1000	503
N#Cc1cc(-c2ncnc(Nc3ccc(N4CCN(C5COC5)CC4)cc3)n2)ccc1OCC1CNC(=O)O1 (stereo not drawn) [Example 607, 5-(4-((4-(4-(oxetan-3-yl)piperazin-1-yl)phenyl)amino)-1,3,5-triazin-2-yl)-2-((2-oxooxazolidin-5-yl)methoxy)benzonitrile]	16	161	21
N#Cc1cc(-c2ncnc(Nc3ccc(N4CCN(C5COC5)CC4)cc3)n2)ccc1OCCN1CCNC(=O)C1 [Example 608, 5-(4-((4-(4-(oxetan-3-yl)piperazin-1-yl)phenyl)amino)-1,3,5-triazin-2-yl)-2-(2-(3-oxopiperazin-1-yl)ethoxy)benzonitrile]	≥ 1000	≥ 1000	662
Cc1cc(C)n(CCOc2ccc(-c3ncnc(Nc4ccc(N5CCN(C6COC6)CC5)cc4)n3)cc2C#N)n1 [Example 609, 2-(2-(3,5-dimethyl-1H-pyrazol-1-yl)ethoxy)-5-(4-((4-(4-(oxetan-3-yl)piperazin-1-yl)phenyl)amino)-1,3,5-triazin-2-yl)benzonitrile]	≥ 1000	237	1000
N#Cc1cc(-c2ncnc(Nc3ccc(N4CCN(C5COC5)CC4)cc3)n2)ccc1O[C@H]1CCN(c2cccnc2)C[C@H]1F [Example 611, 2-(((3R,4S)-3-fluoro-1-(pyridin-3-yl)piperidin-4-yl)oxy)-5-(4-((4-(4-(oxetan-3-yl)piperazin-1-yl)phenyl)amino)-1,3,5-triazin-2-yl)benzonitrile]	≥ 1000	≥ 1000	1000
Cc1noc(C(=O)N2CC[C@H](Oc3ccc(-c4ncnc(Nc5ccc(N6CCN(C7COC7)CC6)cc5)n4)cc3C#N)[C@H](F)C2)n1 [Example 612, 2-(((3R,4S)-3-fluoro-1-(3-methyl-1,2,4-oxadiazole-5-carbonyl)piperidin-4-yl)oxy)-5-(4-((4-(4-(oxetan-3-yl)piperazin-1-yl)phenyl)amino)-1,3,5-triazin-2-yl)benzonitrile]	2	607	3
C[C@H](O)C(=O)N1CC[C@H](Nc2ccc(-c3ncnc(Nc4ccc(N5CCN(C6COC6)CC5)cc4)n3)cc2C#N)[C@H](F)C1 [Example 613, 2-(((3R,4S)-3-fluoro-1-((S)-2-hydroxypropanoyl)piperidin-4-yl)amino)-5-(4-((4-(4-(oxetan-3-yl)piperazin-1-yl)phenyl)amino)-1,3,5-triazin-2-yl)benzonitrile]	175	69	128
N#Cc1cc(-c2ncnc(Nc3ccc(N4CCN(C5COC5)CC4)cc3)n2)ccc1O[C@H]1CCN(C(=O)C2(O)CNC2)C[C@H]1F [Example 614, 2-(((3R,4S)-3-fluoro-1-(3-hydroxyazetidine-3-carbonyl)piperidin-4-yl)oxy)-5-(4-((4-(4-(oxetan-3-yl)piperazin-1-yl)phenyl)amino)-1,3,5-triazin-2-yl)benzonitrile]	45	268	25
C[C@H](O)C(=O)N1CC[C@H](Oc2ccc(-c3ncnc(Nc4ccc([C@H]5CCCN5)cc4)n3)cc2C#N)[C@H](F)C1 [Example 615, 2-(((3R,4S)-3-fluoro-1-((S)-2-hydroxypropanoyl)piperidin-4-yl)oxy)-5-(4-((4-((R)-pyrrolidin-2-yl)phenyl)amino)-1,3,5-triazin-2-yl)benzonitrile]	1	≥ 1000	4
C[C@H](O)C(=O)N1CC[C@H](Oc2ccc(-c3ncnc(Nc4ccc([C@H]5CCCN5C5COC5)cc4)n3)cc2C#N)[C@H](F)C1 [Example 616, 2-(((3R,4S)-3-fluoro-1-((S)-2-hydroxypropanoyl)piperidin-4-yl)oxy)-5-(4-((4-((R)-1-(oxetan-3-yl)pyrrolidin-2-yl)phenyl)amino)-1,3,5-triazin-2-yl)benzonitrile]	4	≥ 1000	5
COC[C@@H](O)C(=O)N1CC[C@H](Oc2ccc(-c3ncnc(Nc4ccc(N5CCN(C6COC6)CC5)cc4)n3)cc2C#N)[C@H](F)C1 [Example 617, 2-(((3R,4S)-3-fluoro-1-((R)-2-hydroxy-3-methoxypropanoyl)piperidin-4-yl)oxy)-5-(4-((4-(4-(oxetan-3-yl)piperazin-1-yl)phenyl)amino)-1,3,5-triazin-2-yl)benzonitrile]	75	226	29
COC[C@H](O)C(=O)N1CC[C@H](Oc2ccc(-c3ncnc(Nc4ccc(N5CCN(C6COC6)CC5)cc4)n3)cc2C#N)[C@H](F)C1 [Example 618, 2-(((3R,4S)-3-fluoro-1-((S)-2-hydroxy-3-methoxypropanoyl)piperidin-4-yl)oxy)-5-(4-((4-(4-(oxetan-3-yl)piperazin-1-yl)phenyl)amino)-1,3,5-triazin-2-yl)benzonitrile]	1	162	2
